Source: ChEMBL document CHEMBL4145694 (J Med Chem, 2018)
Calls of active or inactive are those of the source. No cut-off for these calls is given here.

Tests used:
[1] = biological target: Delta-type opioid receptor (Homo sapiens) (UniProt P41143); assay: Antagonist activity at human delta-opioid receptor expressed in CHO cell membranes assessed as inhibition of DPDPE-induced [35S]GTPgammaS binding incubated for 60 mins by scintillation counting method; format: functional
[2] = biological target: Mu-type opioid receptor (Homo sapiens) (UniProt P35372); assay: Agonist activity at human mu-opioid receptor expressed in CHO cell membranes assessed as stimulation of [35S]GTPgammaS binding at 10 uM incubated for 60 mins by scintillation counting method; format: functional
Mu-type opioid receptor (Homo sapiens), sequence (P35372 whole entry): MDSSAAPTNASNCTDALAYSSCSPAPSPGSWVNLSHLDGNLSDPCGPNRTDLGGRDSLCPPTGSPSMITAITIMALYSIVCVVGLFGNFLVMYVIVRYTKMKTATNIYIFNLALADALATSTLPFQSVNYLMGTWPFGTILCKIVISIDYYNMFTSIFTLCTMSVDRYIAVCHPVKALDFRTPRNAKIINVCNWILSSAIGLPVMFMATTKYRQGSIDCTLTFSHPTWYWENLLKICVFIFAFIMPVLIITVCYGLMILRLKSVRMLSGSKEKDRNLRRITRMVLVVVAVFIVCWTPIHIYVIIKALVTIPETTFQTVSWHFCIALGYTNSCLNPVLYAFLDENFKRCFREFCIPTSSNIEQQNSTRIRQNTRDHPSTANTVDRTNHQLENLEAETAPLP

[3] = biological target: Delta-type opioid receptor (Homo sapiens) (UniProt P41143); assay: Agonist activity at human delta-opioid receptor expressed in CHO cell membranes assessed as stimulation of [35S]GTPgammaS binding at 10 uM incubated for 60 mins by scintillation counting method; format: functional
[4] = biological target: Kappa-type opioid receptor (Homo sapiens) (UniProt P41145); assay: Agonist activity at human kappa-opioid receptor expressed in CHO cell membranes assessed as stimulation of [35S]GTPgammaS binding at 10 uM incubated for 60 mins by scintillation counting method; format: functional
Kappa-type opioid receptor (Homo sapiens), sequence (P41145 whole entry): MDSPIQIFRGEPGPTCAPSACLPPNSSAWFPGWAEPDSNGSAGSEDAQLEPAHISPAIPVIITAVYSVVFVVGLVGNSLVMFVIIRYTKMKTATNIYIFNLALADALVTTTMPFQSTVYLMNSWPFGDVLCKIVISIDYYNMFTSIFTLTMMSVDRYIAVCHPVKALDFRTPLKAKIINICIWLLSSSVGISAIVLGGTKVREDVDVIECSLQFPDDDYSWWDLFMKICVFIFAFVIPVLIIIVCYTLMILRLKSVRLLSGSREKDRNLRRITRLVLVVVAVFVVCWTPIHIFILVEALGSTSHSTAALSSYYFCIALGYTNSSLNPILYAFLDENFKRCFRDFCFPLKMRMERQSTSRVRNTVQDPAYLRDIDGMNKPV

[5] = Half life in plasma of Sprague-Dawley CD rat at 5 mg/kg, sc administered as single dose measured over 1 to 168 hrs post dose by LC/MS-MS method; format: ADME, organism-based
[6] = Clearance in plasma of Sprague-Dawley CD rat at 5 mg/kg, sc administered as single dose measured over 1 to 168 hrs post dose by LC/MS-MS method; format: ADME, organism-based
[7] = AUClast in plasma of Sprague-Dawley CD rat at 5 mg/kg, sc administered as single dose measured over 1 to 168 hrs post dose by LC/MS-MS method; format: ADME, organism-based; parameters: dose 5 mg/kg, route subcutaneous, time 0 - last
[8] = Total AUC in plasma of Sprague-Dawley CD rat at 5 mg/kg, sc administered as single dose measured over 1 to 168 hrs post dose by LC/MS-MS method; format: ADME, organism-based; parameters: dose 5 mg/kg, route subcutaneous, time AUCmax
[9] = Ratio of AUClast in brain to plasma of Sprague-Dawley CD rat at 5 mg/kg, sc administered as single dose measured over 1 to 168 hrs post dose by LC/MS-MS method; format: ADME, organism-based; conditions: brain
[10] = Drug level in plasma of Sprague-Dawley CD rat at 5 mg/kg, sc administered as single dose measured after 168 hrs post dose by LC/MS-MS method; format: ADME, organism-based; conditions: in vivo
[11] = Drug level in brain of Sprague-Dawley CD rat at 5 mg/kg, sc administered as single dose measured after 168 hrs post dose by LC/MS-MS method; format: ADME, organism-based; conditions: in vivo
[12] = Half life in brain of Sprague-Dawley CD rat at 5 mg/kg, sc administered as single dose measured over 1 to 168 hrs post dose by LC/MS-MS method; format: ADME, organism-based
[13] = AUClast in brain of Sprague-Dawley CD rat at 5 mg/kg, sc administered as single dose measured over 1 to 168 hrs post dose by LC/MS-MS method; format: ADME, organism-based; conditions: in vivo
[14] = Total AUC in brain of Sprague-Dawley CD rat at 5 mg/kg, sc administered as single dose measured over 1 to 168 hrs post dose by LC/MS-MS method; format: ADME, organism-based; parameters: dose 5 mg/kg, time AUCmax, route subcutaneous; conditions: in vivo
in vivo [15] = conditions: Sprague-Dawley CD, rat, plasma, sc, 5 mg/kg
in vivo [16] = conditions: Sprague-Dawley CD, rat, brain, sc, 5 mg/kg

Delta-type opioid receptor (Homo sapiens), sequence (P41143 whole entry): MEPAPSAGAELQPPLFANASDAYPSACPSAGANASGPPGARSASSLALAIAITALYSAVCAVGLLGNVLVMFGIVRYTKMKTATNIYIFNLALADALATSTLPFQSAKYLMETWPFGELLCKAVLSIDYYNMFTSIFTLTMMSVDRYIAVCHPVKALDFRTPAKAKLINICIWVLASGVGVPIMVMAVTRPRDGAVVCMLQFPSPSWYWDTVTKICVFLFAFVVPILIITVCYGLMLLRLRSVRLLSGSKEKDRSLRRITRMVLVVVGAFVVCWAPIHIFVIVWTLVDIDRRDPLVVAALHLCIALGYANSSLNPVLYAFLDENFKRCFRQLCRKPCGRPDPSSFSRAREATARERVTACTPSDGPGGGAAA

With `CC1CCN(C[C@@H](NC(=O)[C@H]2Cc3ccc(O)cc3CN2)C(C)C)CC1` the Ke [1] was > 3000 nM, the Activity [2] was “inactive” and the Activity [3] was “inactive”. For the same compound, the Activity [4] was “inactive”, the half-life [5] was 30.7 h and the CL/F [6] was 43.8 mL/min/kg. For the same compound, the AUC(0-t) [7] was 1860 ng·h/mL, the AUC [8] was 1900 ng·h/mL and the BPR [9] was 10.07. The Drug uptake [10] was “Active”, the Drug uptake [11] was “Active” and the half-life [12] was 57.2 h. For the same compound, the AUClast [13] was 18765 ng·h/g, the AUC [14] was 21400 ng·h/g and the Tmax (in vivo [15]) was 1 h. It also gave a Tmax (in vivo [16]) of 4 h.
